Experimental data from PMC9610285 (Pharmaceutics, 2022).
Read-outs that look alike come from different tables or passages of the source.

Conditions: 1 mg single oral dose, fasting
Method: The data used in this work were obtained from four bioequivalence clinical trials conducted at the Clinical Trials Unit of the Hospital Universitario de La Princesa (UECHUP) (EUDRA-CT IDs: 2012-004433-17, 2013-002159-14, 2014-001123-77 and 2021-000315-23). […] The reference formulation (R) in all cases was Azilect® 1 mg tablets (TEVA Pharmaceuticals Europe B.V.), which was compared against different test formulations (T), all of them 1 mg tablets, except in clinical trial 3, whose test formulation was orodispersible 1 mg. The four bioequivalence trials had two periods and two sequences (TR and RT). In the first period, the volunteers randomly were administered one of the two formulations and, in the following period, after a 7-day washout period, the opposite formulation. All of them were reviewed and approved by Independent Ethics Board (IEB) of the Hospital Universitario de La Princesa, and by the Spanish Drug Agency (AEMPS). In addition, they were performed in accordance with the guidelines of the International Conference on Harmonization for Good Clinical Practice (ICH-GCP), current Spanish legislation and the Revised Declaration of Helsinki. The pharmacogenetic study (SFC-FG-2020-1) was likewise approved by the IEB of Hospital Universitario de La Princesa (registry number 4176, 9 July 2020).
In each period, the drug was administered under fasting conditions, which were maintained until 5 h after drug administration. Each subject provided 20 or 21 blood samples (depending on the clinical trial) that were extracted by BD Vacutainer® vacuum system with EDTA K2 tubes for analysis at different times between 0 h (before receiving the drug) and up to 12 h after drug intake. […] A high-performance liquid chromatography coupled to triple quadrupole mass spectrometry (HPLC-MS/MS) analytical method was used. The latter was validated according to European regulations for bioequivalence assessment, with a lower limit of quantification (LLOQ) of 10 pg/mL and a calibration range of 10–10,000 pg/mL.
Pharmacokinetic parameters were calculated with WinNonlin Professional (Scientific Consulting, Inc., Cary, NC, USA) following a non-compartmental model. The area under the curve (AUC0-t), was obtained by the trapezoidal method. The extrapolation to infinity (AUC0-∞) was determined by the sum of two partial AUCs: AUCt-∞ calculated by the ratio Ct/k, where Ct is the last detectable concentration and k the elimination slope; plus AUC0-t. Cmax and tmax were directly obtained from the plasma time-concentration curves. t1/2 was calculated as Ln2/k. Plasma clearance adjusted for bioavailability (Cl/F) was calculated as dose/AUC. Finally, the volume of distribution adjusted for bioavailability (Vd/F) was calculated by dividing Cl/F by k.
The SPSS software (v23.0, SPSS Inc., Chicago, IL, USA) was used for statistical analyses. AUC0-∞, and Cmax were divided by the dose/weight (DW) ratio to correct sex-related variability related to a varying weight. For the same purpose, Vd/F and Cl/F were divided by weight. With the purpose of normalizing their distributions, all pharmacokinetic parameters were logarithmically transformed for statistical analysis. Initially, a univariate analysis was conducted of the demographic characteristics according to sex and ethnicity, and of the pharmacokinetic parameters or ADR incidence based on sex, biogeographical group (hereinafter, “ethnicity”), genotypes and phenotypes. T-tests were used for the comparison of means for variables with two categories and ANOVA tests for variables with three or more categories, followed by a Bonferroni post-hoc. The Shapiro–Wilk test was used to address the normality of demographic characteristics. For those not following a normal distribution, the nonparametric Kruskal–Wallis test was used.

[1] = CYP1A2 *1N/*1K, *1N/*1L, *1N/*1L and *1N/*1G merged, n=4

With `C#CCN[C@@H]1CCc2ccccc21` [rasagiline, Rasagiline] the “lower tmax value, ABCC2 rs2273697 A/A vs G allele carriers” value was “approximately 50%”, the “AUC0-∞/DW” value (ABCB1 rs1045642 A/A, n=23) was 275.48 ± 59.65 ng·kg·h/mL/mg and the Cmax/DW (ABCB1 rs1045642 A/A, n=23) was 438.76 ± 152.32 ng·kg/mL/mg. The t1/2 (ABCB1 rs1045642 A/A, n=23) was 2.58 ± 0.63 h, the tmax (ABCB1 rs1045642 A/A, n=23) was 0.50 ± 0.21 h and the “AUC0-∞/DW” value (ABCB1 rs1045642 G/A, n=61) was 273.00 ± 83.60 ng·kg·h/mL/mg. It also gave a Cmax/DW (ABCB1 rs1045642 G/A, n=61) of 426.48 ± 179.87 ng·kg/mL/mg, a t1/2 (ABCB1 rs1045642 G/A, n=61) of 2.63 ± 1.04 h and a tmax (ABCB1 rs1045642 G/A, n=61) of 0.51 ± 0.27 h. For the same compound, the “AUC0-∞/DW” value (ABCB1 rs1045642 G/G, n=34) was 244.10 ± 63.87 (pm = 0.012) h*ng*kg/mL*mg, the Cmax/DW (ABCB1 rs1045642 G/G, n=34) was 359.70 ± 127.40 ng·kg/mL/mg and the t1/2 (ABCB1 rs1045642 G/G, n=34) was 2.83 ± 0.73 h. For the same compound, the tmax (ABCB1 rs1045642 G/G, n=34) was 0.47 ± 0.19 h, the “AUC0-∞/DW” value (ABCC2 rs2273697 A/A, n=3) was 350.15 ± 86.34 ng·kg·h/mL/mg and the Cmax/DW (ABCC2 rs2273697 A/A, n=3) was 579.28 ± 133.19 ng·kg/mL/mg. For the same compound, the t1/2 (ABCC2 rs2273697 A/A, n=3) was 3.01 ± 0.49 h, the tmax (ABCC2 rs2273697 A/A, n=3) was 0.22 ± 0.09 (pu = 0.005, pm = 0.001) ^& h and the “AUC0-∞/DW” value (ABCC2 rs2273697 G/A, n=42) was 264.50 ± 74.33 ng·kg·h/mL/mg. The Cmax/DW (ABCC2 rs2273697 G/A, n=42) was 411.51 ± 152.39 ng·kg/mL/mg, the t1/2 (ABCC2 rs2273697 G/A, n=42) was 2.59 ± 0.90 h and the tmax (ABCC2 rs2273697 G/A, n=42) was 0.48 ± 0.19 h. For the same compound, the “AUC0-∞/DW” value (ABCC2 rs2273697 G/G, n=73) was 262.04 ± 73.57 ng·kg·h/mL/mg, the Cmax/DW (ABCC2 rs2273697 G/G, n=73) was 401.58 ± 167.92 ng·kg/mL/mg and the t1/2 (ABCC2 rs2273697 G/G, n=73) was 2.71 ± 0.89 h. The tmax (ABCC2 rs2273697 G/G, n=73) was 0.51 ± 0.26 h, the “AUC0-∞/DW” value (COMT rs4680 A/A, n=26) was 236.37 ± 68.34 (pu = 0.018, pm = 0.008) h*ng*kg/mL*mg and the Cmax/DW (COMT rs4680 A/A, n=26) was 355.69 ± 168.61 (pu = 0.012, pm = 0.035) ng*kg/mL*mg. The t1/2 (COMT rs4680 A/A, n=26) was 2.74 ± 1.00 h, the tmax (COMT rs4680 A/A, n=26) was 0.50 ± 0.22 h and the “AUC0-∞/DW” value (COMT rs4680 G/A, n=56) was 285.72 ± 81.43 ng·kg·h/mL/mg. For the same compound, the Cmax/DW (COMT rs4680 G/A, n=56) was 450.03 ± 166.19 ng·kg/mL/mg, the t1/2 (COMT rs4680 G/A, n=56) was 2.71 ± 0.95 h and the tmax (COMT rs4680 G/A, n=56) was 0.47 ± 0.18 h. The “AUC0-∞/DW” value (COMT rs4680 G/G, n=36) was 253.96 ± 59.13 ng·kg·h/mL/mg, the Cmax/DW (COMT rs4680 G/G, n=36) was 385.75 ± 140.56 ng·kg/mL/mg and the t1/2 (COMT rs4680 G/G, n=36) was 2.58 ± 0.68 h. For the same compound, the tmax (COMT rs4680 G/G, n=36) was 0.52 ± 0.32 h, the “AUC0-∞/DW” value (CYP1A2 *1B/*1B, n=6) was 226.81 ± 52.00 ng·kg·h/mL/mg and the Cmax/DW (CYP1A2 *1B/*1B, n=6) was 411.84 ± 85.38 ng·kg/mL/mg. The t1/2 (CYP1A2 *1B/*1B, n=6) was 1.87 ± 0.6 h, the tmax (CYP1A2 *1B/*1B, n=6) was 0.42 ± 0.18 h and the “AUC0-∞/DW” value (CYP1A2 *1B/*1F, n=36) was 265.27 ± 80.68 ng·kg·h/mL/mg. For the same compound, the Cmax/DW (CYP1A2 *1B/*1F, n=36) was 426.5 ± 183.44 ng·kg/mL/mg, the t1/2 (CYP1A2 *1B/*1F, n=36) was 2.66 ± 0.9 h and the tmax (CYP1A2 *1B/*1F, n=36) was 0.44 ± 0.19 h. The “AUC0-∞/DW” value (CYP1A2 *1B/*1L, n=4) was 275.25 ± 108.77 ng·kg·h/mL/mg, the Cmax/DW (CYP1A2 *1B/*1L, n=4) was 392.87 ± 133.43 ng·kg/mL/mg and the t1/2 (CYP1A2 *1B/*1L, n=4) was 3.32 ± 1.62 h. For the same compound, the tmax (CYP1A2 *1B/*1L, n=4) was 0.46 ± 0.16 h, the “AUC0-∞/DW” value (CYP1A2 *1B/*1N, n=5) was 256.33 ± 116.11 ng·kg·h/mL/mg and the Cmax/DW (CYP1A2 *1B/*1N, n=5) was 327.66 ± 320.93 ng·kg/mL/mg. The t1/2 (CYP1A2 *1B/*1N, n=5) was 3 ± 0.78 h, the tmax (CYP1A2 *1B/*1N, n=5) was 0.6 ± 0.28 h and the “AUC0-∞/DW” value (CYP1A2 *1F/*1F, n=38) was 263.28 ± 60.08 ng·kg·h/mL/mg. For the same compound, the Cmax/DW (CYP1A2 *1F/*1F, n=38) was 403.23 ± 139.11 ng·kg/mL/mg, the t1/2 (CYP1A2 *1F/*1F, n=38) was 2.69 ± 0.82 h and the tmax (CYP1A2 *1F/*1F, n=38) was 0.51 ± 0.21 h. The “AUC0-∞/DW” value (CYP1A2 *1J/*1N, n=5) was 275.39 ± 91.37 ng·kg·h/mL/mg, the Cmax/DW (CYP1A2 *1J/*1N, n=5) was 435.74 ± 117.78 ng·kg/mL/mg and the t1/2 (CYP1A2 *1J/*1N, n=5) was 2.15 ± 0.83 h. For the same compound, the tmax (CYP1A2 *1J/*1N, n=5) was 0.43 ± 0.09 h, the “AUC0-∞/DW” value (CYP1A2 *1L/*1F, n=11) was 285.81 ± 77.84 ng·kg·h/mL/mg and the Cmax/DW (CYP1A2 *1L/*1F, n=11) was 389.59 ± 138.34 ng·kg/mL/mg. The t1/2 (CYP1A2 *1L/*1F, n=11) was 2.55 ± 1.07 h, the tmax (CYP1A2 *1L/*1F, n=11) was 0.64 ± 0.48 h and the “AUC0-∞/DW” value (CYP1A2 *1L/*1L, n=6) was 301.28 ± 89.3 ng·kg·h/mL/mg. For the same compound, the Cmax/DW (CYP1A2 *1L/*1L, n=6) was 518.16 ± 158.15 ng·kg/mL/mg, the t1/2 (CYP1A2 *1L/*1L, n=6) was 3.06 ± 0.38 h and the tmax (CYP1A2 *1L/*1L, n=6) was 0.53 ± 0.17 h. The “AUC0-∞/DW” value [1] was 220.53 ± 87.92 ng·kg·h/mL/mg, the Cmax/DW [1] was 355.79 ± 242.1 ng·kg/mL/mg and the t1/2 [1] was 2.94 ± 0.69 h. For the same compound, the tmax [1] was 0.5 ± 0.14 h, the “AUC0-∞/DW” value (CYP2C19 µM, n=3) was 205.53 ± 82.32 ng·kg·h/mL/mg and the Cmax/DW (CYP2C19 µM, n=3) was 347.93 ± 233.78 ng·kg/mL/mg. It also gave a t1/2 (CYP2C19 µM, n=3) of 1.75 ± 0.67 h.
